Assay results taken from US20220125959A1, “PROSTATE-SPECIFIC MEMBRANE ANTIGEN (PSMA) INHIBITORS AS DIAGNOSTIC AND RADIONUCLIDE THERAPEUTIC AGENTS” (FIVE ELEVEN PHARMA INC., priority 2019, published 2022).
Where “and” joins values, the source holds several entries; their conditions need not be identical. Equal values may be shown once.

Assays:
[1] = tested on: PC3-PIP (PSMA positive) and PC-3 tumors (PSMA negative); assay: Biodistribution of 177Lu labeled compounds 4 and 7 in tumor bearing nude mice; type: in vivo, CD-1 male nude mice
Description: (§1) ^177Lu labeling: To 10 μg ligand (1 mg/mL DMSO) were added 15 μL of 2.0 N NaOAc, 400 μL 0.05 N HCl, and 20 μL ^177Lu-solution (780 μCi (Capintec setting 450 (reading×10)). The reaction was heated with a heating block at 95° C. for 1 hour in a 3 mL closed vial. After cooling, the sample was analyzed by HPLC (HPLC: Eclipse XDB-C18 150×4.6 mm, gradient, 1 mL/min; A: 0.1% TFA in water; B: 0.1% TFA in ACN: 0-4 min A/B 85/15%; 4-11 min: from 85/15 to 30/70%; 11-14 min: from 30/70% to 85/15%). Radiochemical purity of [^177Lu]4 (FIG. 2) and [^177Lu]7 was >98% and injected doses were stable at 48 hr after formulation.
(§2) For iv injection 150 μL of labeled solution was diluted with saline to 3.75mL. Mice were injected with 150 μL of formulated dose. Injected radioactivity was 100 μCi and PSMA ligand amount was constant at 0.72 nmole/mouse.
Biodistribution of [^68Ga]4, [^177Lu]4 and [^177Lu]7 was determined in nude mice bearing PIP PC3 (PSMA positive) and PC3 (PSMA negative) tumors on the left and right shoulder, respectively, over a period of 192 h (Table 3a, 3b and 3c). […] The uptake in PC3 tumors (PSMA negative) of both ligands, [^177Lu]4 and [^177Lu]7, was clearly much lower than those of PC-3 PIP tumors (PSMA positive).

[2] = tested on: PSMA-negative cell line, PC3; assay: In vitro cell uptake, PC3 cells; type: cell-based; details: PC3 (do not express PSMA), 60 min
Description: (§3) To determine the cell uptakes of the [^177Lu] labelled ligands, 5×10^5 cells/well were grown in 12-well plates in 1 mL of medium for 48 h. The cells were washed twice with PBS, and 900 μL fresh media were added. Radiolabelled ligand was added and the PSMA-inhibitor (2-PMPA) was applied in a final concentration of 10 μM to determine unspecific binding. All samples were prepared in triplicate. Following the incubation at 37° C., cells were washed twice to remove unbound activity and afterwards lysed in 1 mL of 0.5 M NaOH. Activity was measured in a gamma counter. Aliquots of the solution added to the cells were also measured for the calculation of the cellular uptake as % ID.

[3] = tested on: PSMA-positive cell line, PIP PC3; assay: In vitro cell uptake, PIP PC3 cells; type: cell-based
Description: as §3, with “Radiolabelled ligand was added and the PSMA-inhibitor (2-PMPA) was applied in a final concentration of 10 μM to determine unspecific binding.” left out

[4] = Stability of injected doses after formulation; type: physicochemical; details: at 48 hr after formulation
Description: ^68Ga labeling: To 15 nmole ligand 4 (1 mg/mL DMSO) were added 20 μL of 2.0 N NaOAc, 500 μL ^68Ga-solution (2.25 mCi). The reaction was heated in a heating block at 90° C. for 10 minutes in a 3 mL closed vial. After cooling, the sample was analyzed by HPLC (HPLC: Eclise XDB C18 150×4.6 mm, gradient, 2 mL/min; A: 0.1% TFA in water; B: 0.1% TFA in ACN: 0-2 min 100% A; 2-4 min: from 0% to 100% B; 4-9 min: 100% B; 9-10 min: from 100% to 0% B). Radiochemical purity of [^68Ga]4 was >99% RCP (FIG. 1) and injected doses were stable at 2 hr after formulation.
as §1, §2

Structure (SMILES): O=C(O)CCC(C(=O)O)N1CCN(CC(=O)O)CCN(C(CCC(=O)NCC(=O)N[C@@H](Cc2ccc(OCC(=O)N[C@@H](Cc3ccccc3)C(=O)NCCCC[C@H](NC(=O)N[C@@H](CCC(=O)O)C(=O)O)C(=O)O)cc2)C(=O)O)C(=O)O)CCN(CC(=O)O)CC1.[177Lu] (stereo partly shown) [[^177Lu]4]
- Biodistribution: Blood ([1]; 1 hr): 0.27 ± 0.07 % dose/g
- Biodistribution: Bone ([1]; 1 hr): 0.15 ± 0.05 % dose/g
- Biodistribution: Brain ([1]; 1 hr): 0.02 ± 0.01 % dose/g
- Biodistribution: Heart ([1]; 1 hr): 0.17 ± 0.03 % dose/g
- Biodistribution: Intestine ([1]; 1 hr): 0.19 ± 0.08 % dose/g
- Biodistribution: Kidney ([1]; 1 hr): 45.59 ± 20.51 % dose/g
- Biodistribution: Liver ([1]; 1 hr): 0.18 ± 0.05 % dose/g
- Biodistribution: Lung ([1]; 1 hr): 0.63 ± 0.13 % dose/g
- Biodistribution: Muscle ([1]; 1 hr): 0.18 ± 0.06 % dose/g
- Biodistribution: PC3 tumor ([1]; 1 hr): 1.13 ± 0.61 % dose/g
- Biodistribution: PIP PC3 tumor ([1]; 1 hr): 15.27 ± 2.93 % dose/g
- Biodistribution: Pancreas ([1]; 1 hr): 0.43 ± 0.20 % dose/g
- Biodistribution: Skin ([1]; 1 hr): 0.35 ± 0.07 % dose/g
- Biodistribution: Spleen ([1]; 1 hr): 1.42 ± 1.44 % dose/g
- Biodistribution: Stomach ([1]; 1 hr): 0.20 ± 0.10 % dose/g
- Biodistribution: Blood ([1]; 4 hrs): 0.02 % dose/g and 0.02 ± 0.01 % dose/g
- Biodistribution: Bone ([1]; 4 hrs): 0.05 ± 0.01 % dose/g
- Biodistribution: Brain ([1]; 4 hrs): 0.01 ± 0.00 % dose/g
- Biodistribution: Heart ([1]; 4 hrs): 0.11 ± 0.07 % dose/g
- Biodistribution: Intestine ([1]; 4 hrs): 0.21 ± 0.11 % dose/g
- Biodistribution: Kidney ([1]; 4 hrs): 21.17 ± 5.08 % dose/g
- Biodistribution: Liver ([1]; 4 hrs): 0.09 ± 0.03 % dose/g
- Biodistribution: Lung ([1]; 4 hrs): 0.20 ± 0.05 % dose/g
- Biodistribution: Muscle ([1]; 4 hrs): 0.05 ± 0.01 % dose/g
- Biodistribution: PC3 tumor ([1]; 4 hrs): 0.28 ± 0.08 % dose/g
- Biodistribution: PIP PC3 tumor ([1]; 4 hrs): 22.38±3.50 % dose/g
- Biodistribution: Pancreas ([1]; 4 hrs): 0.18 ± 0.10 % dose/g
- Biodistribution: Skin ([1]; 4 hrs): 0.12 ± 0.05 % dose/g
- Biodistribution: Spleen ([1]; 4 hrs): 0.53 ± 0.26 % dose/g
- Biodistribution: Stomach ([1]; 4 hrs): 0.12 ± 0.02 % dose/g
- Biodistribution: Blood ([1]; 24 hrs (1 day)): 0.002 ± 0.000 % dose/g
- Biodistribution: Bone ([1]; 24 hrs (1 day)): 0.022 ± 0.010 % dose/g
- Biodistribution: Brain ([1]; 24 hrs (1 day)): 0.006 ± 0.001 % dose/g
- Biodistribution: Heart ([1]; 24 hrs (1 day)): 0.011 ± 0.002 % dose/g
- Biodistribution: Intestine ([1]; 24 hrs (1 day)): 0.132 ± 0.114 % dose/g
- Biodistribution: Kidney ([1]; 24 hrs (1 day)): 2.291 ± 0.761 % dose/g
- Biodistribution: Liver ([1]; 24 hrs (1 day)): 0.036 ± 0.003 % dose/g
- Biodistribution: Lung ([1]; 24 hrs (1 day)): 0.024 ± 0.005 % dose/g
- Biodistribution: Muscle ([1]; 24 hrs (1 day)): 0.012 ± 0.003 % dose/g
- Biodistribution: PC3 tumor ([1]; 24 hrs (1 day)): 0.071 ± 0.010 % dose/g
- Biodistribution: PIP PC3 tumor ([1]; 24 hrs (1 day)): 11.29 ± 2.62 % dose/g
- Biodistribution: Pancreas ([1]; 24 hrs (1 day)): 0.015 ± 0.004 % dose/g
- Biodistribution: Skin ([1]; 24 hrs (1 day)): 0.059 ± 0.029 % dose/g
- Biodistribution: Spleen ([1]; 24 hrs (1 day)): 0.047 ± 0.005 % dose/g
- Biodistribution: Stomach ([1]; 24 hrs (1 day)): 0.076 ± 0.026 % dose/g
- Biodistribution: Blood ([1]; 48 hrs (2 days)): 0.003 ± 0.002 % dose/g
- Biodistribution: Bone ([1]; 48 hrs (2 days)): 0.030 ± 0.010 % dose/g
- Biodistribution: Brain ([1]; 48 hrs (2 days)): 0.006 ± 0.002 % dose/g
- Biodistribution: Heart ([1]; 48 hrs (2 days)): 0.010 ± 0.000 % dose/g
- Biodistribution: Intestine ([1]; 48 hrs (2 days)): 0.059 ± 0.036 % dose/g
- Biodistribution: Kidney ([1]; 48 hrs (2 days)): 2.359 ± 1.504 % dose/g
- Biodistribution: Liver ([1]; 48 hrs (2 days)): 0.069 ± 0.067 % dose/g
- Biodistribution: Lung ([1]; 48 hrs (2 days)): 0.032 ± 0.028 % dose/g
- Biodistribution: Muscle ([1]; 48 hrs (2 days)): 0.006 ± 0.003 % dose/g
- Biodistribution: PC3 tumor ([1]; 48 hrs (2 days)): 0.080 ± 0.034 % dose/g
- Biodistribution: PIP PC3 tumor ([1]; 48 hrs (2 days)): 13.98 ± 6.41 % dose/g
- Biodistribution: Pancreas ([1]; 48 hrs (2 days)): 0.011 ± 0.001 % dose/g
- Biodistribution: Skin ([1]; 48 hrs (2 days)): 0.034 ± 0.015 % dose/g
- Biodistribution: Spleen ([1]; 48 hrs (2 days)): 0.133 ± 0.173 % dose/g
- Biodistribution: Stomach ([1]; 48 hrs (2 days)): 0.032 ± 0.014 % dose/g
- Biodistribution: Blood ([1]; 96 hrs (4 days)): 0.001 ± 0.000 % dose/g
- Biodistribution: Bone ([1]; 96 hrs (4 days)): 0.043 ± 0.038 % dose/g
- Biodistribution: Brain ([1]; 96 hrs (4 days)): 0.006 ± 0.001 % dose/g
- Biodistribution: Heart ([1]; 96 hrs (4 days)): 0.011 ± 0.006 % dose/g
- Biodistribution: Intestine ([1]; 96 hrs (4 days)): 0.040 ± 0.028 % dose/g
- Biodistribution: Kidney ([1]; 96 hrs (4 days)): 0.623 ± 0.072 % dose/g
- Biodistribution: Liver ([1]; 96 hrs (4 days)): 0.031 ± 0.003 % dose/g
- Biodistribution: Lung ([1]; 96 hrs (4 days)): 0.020 ± 0.009 % dose/g
- Biodistribution: Muscle ([1]; 96 hrs (4 days)): 0.006 ± 0.002 % dose/g
- Biodistribution: PC3 tumor ([1]; 96 hrs (4 days)): 0.047 ± 0.012 % dose/g
- Biodistribution: PIP PC3 tumor ([1]; 96 hrs (4 days)): 6.90 ± 1.87 % dose/g
- Biodistribution: Pancreas ([1]; 96 hrs (4 days)): 0.022 ± 0.011 % dose/g
- Biodistribution: Skin ([1]; 96 hrs (4 days)): 0.032 ± 0.019 % dose/g
- Biodistribution: Spleen ([1]; 96 hrs (4 days)): 0.033 ± 0.015 % dose/g
- Biodistribution: Stomach ([1]; 96 hrs (4 days)): 0.030 ± 0.002 % dose/g
- Biodistribution: Blood ([1]; 192 hrs (8 days)): 0.001 ± 0.000 % dose/g
- Biodistribution: Bone ([1]; 192 hrs (8 days)): 0.042 ± 0.035 % dose/g
- Biodistribution: Brain ([1]; 192 hrs (8 days)): 0.003 ± 0.001 % dose/g
- Biodistribution: Heart ([1]; 192 hrs (8 days)): 0.005 ± 0.000 % dose/g
- Biodistribution: Intestine ([1]; 192 hrs (8 days)): 0.162 ± 0.087 % dose/g
- Biodistribution: Kidney ([1]; 192 hrs (8 days)): 0.177 ± 0.009 % dose/g
- Biodistribution: Liver ([1]; 192 hrs (8 days)): 0.021 ± 0.005 % dose/g
- Biodistribution: Lung ([1]; 192 hrs (8 days)): 0.006 ± 0.003 % dose/g
- Biodistribution: Muscle ([1]; 192 hrs (8 days)): 0.003 ± 0.003 % dose/g
- Biodistribution: PC3 tumor ([1]; 192 hrs (8 days)): 0.022 ± 0.002 % dose/g
- Biodistribution: PIP PC3 tumor ([1]; 192 hrs (8 days)): 4.21 ± 1.03 % dose/g
- Biodistribution: Pancreas ([1]; 192 hrs (8 days)): 0.003 ± 0.001 % dose/g
- Biodistribution: Skin ([1]; 192 hrs (8 days)): 0.011 ± 0.003 % dose/g
- Biodistribution: Spleen ([1]; 192 hrs (8 days)): 0.032 ± 0.010 % dose/g
- Biodistribution: Stomach ([1]; 192 hrs (8 days)): 0.209 ± 0.131 % dose/g
- Uptake in PC3 tumors (PSMA negative) versus PC-3 PIP tumors (PSMA positive) ([1]; mouse, in vivo): much lower
- In vitro cell uptake [2]: 0.4 % ID per 5 × 10^5 cells
- Uptakes compared with reference ligand [177Lu]PSMA-617 ([3]; PIP PC3): much higher uptakes
- In vitro cell uptake ([3]; PIP PC3, 5 min): 4.0 % ID per 5 × 10^5 cells
- In vitro cell uptake ([3]; PIP PC3, 15 min): 7.5 % ID per 5 × 10^5 cells
- In vitro cell uptake ([3]; PIP PC3, 30 min): 11.2 % ID per 5 × 10^5 cells
- In vitro cell uptake ([3]; PIP PC3, 60 min): 13.4 % ID per 5 × 10^5 cells
- In vitro cell uptake ([3]; PIP PC3, 60 min, with PSMA inhibitor (2-PMPA, 2 uM)): 0.9 % ID per 5 × 10^5 cells
- In vitro cell uptake ([3]; PIP PC3, 120 min): 14.9 % ID per 5 × 10^5 cells
- Stability of injected doses [4]: stable
